Values joined by “and” are separate entries in the source; they are usually repeats but may differ in a detail not shown here. Identical values can stand only once.
Columns and labels:
E. faecium NCTC 12204 = assay: inhibition of bacterial growth, OD600 after 20 h; format: cell-based, Enterococcus faecium; conditions: SSA 5.0 mM, 2.5% ethanol, negative = enhanced growth, listed as 7
Experimental: (§1) With the self-associative properties of 1–10 established, the antimicrobial activity of these SSAs were determined against a panel of clinically relevant, high-priority pathogens including: P. aeruginosa PAO1; Klebsiella pneumonia (K. pneumoniae) M6; E. coli NCTC 12923; Acinetobacter baumannii (A. baumannii) ATCC 17978; S. aureus ATCC 9144; Enterococcus faecalis (E. faecalis) NCTC 775; and Enterococcus faecium (E. faecium) NCTC 12204. […] However, it should be noted that the SSA stock solution was prepared in a H2O 5% EtOH solution, to ensure that the SSA aggregates formed were in line with those characterised within the scope of the SSA self-association studies.
(§2) Section 3: Biological methods
(§3) These methods were taken directly from UK Health and Security Office (UKHSA) standard […]
(§4) Preparation of Luria Broth media (LB): Yeast extract (5.0 g), tryptone (10.0 g) and sodium chloride (10.0 g) were dissolved in dH₂O (1.0 L) then divided into bottles and autoclaved.
(§5) Preparation of Luria Broth (LB) agar plates: Agar (6.0 g) was added to LB (400 mL) and autoclaved. Once cool, the LB agar was poured into sterile petri dishes under sterile conditions and allowed to set. LB plates were stored at 4 °C until use.
(§6) Preparation of bacterial plates: Sterile LB agar plates were streaked using streaked using the desired bacteria i) Pseudomonas aeruginosa (P.aeruginosa) PAO1, ii) Klebsiella pneumoniae (K. pneumoniae) M6 iii) E. coli NCTC 12923 and iv) Acinetobacter baumannii (A. baumannii) ATCC 17978 and Gram-positive i) Staphylococcus aureus (S. aureus) ATCC 9144 ii) Enterococcus faecalis (E. faecalis) NCTC 775 and iii) Enterococcus faecium (E. faecium ) NCTC 12204, then incubated at 37 °C overnight.
(§7) Preparation of Inoculum: An initial culture was made up by inoculating LB media (5 mL) with a single colony of bacteria under sterile conditions and incubated at 37 °C with shaking overnight. The following day, overnight bacterial cultures were subcultured into fresh LB medium to a starting OD600 of 0.01.
(§8) Preparation of 96 well microplate for MIC50: The 1:100 cell suspension (150 µL) was dispensed into individual wells under sterile conditions. SSAs (30 µL) were added to the wells to equal a total volume of 180 µL in the wells. Six repeats of each concentration for each SSA were created each plate. The plates were sealed using parafilm, then incubated at 37 °C in a microplate reader for 20 hours. OD600 endpoint data was used to generate growth curves. […]

[1] = dynamic light scattering (DLS) of SSA aggregates; format: physicochemical; conditions: 5.6 mM, H2O 5.0% EtOH, 298 K; listed as 7
Experimental: Dynamic light scattering (DLS) and zeta potential measurements in H2O 5.0% EtOH were used to determine the hydrodynamic diameter (dH) and stability of the higher-order SSA aggregates detected by (Q) ^1H NMR spectroscopy at 5.6 mM, Table 1. […] However, we are unable to confidently report a dH for 1 due to the instability of this system, which is supported by a zeta potential value of −26 mV, obtained for this SSA under the same experimental conditions. […] Due to the instability of these systems in the absence of solvent, attempts to further characterise these systems through SEM or AFM are not possible.[48]

E. coli NCTC 12923 = assay: inhibition of bacterial growth, OD600 after 20 h; format: cell-based, Escherichia coli; conditions: SSA 5.0 mM, 2.5% ethanol, negative = enhanced growth, listed as 7
Experimental: as §1, §2, §3, §4, §5, §6, §7, §8

A. baumannii ATCC 17978 = assay: inhibition of bacterial growth, OD600 after 20 h; format: cell-based, Acinetobacter baumannii; conditions: SSA 5.0 mM, 2.5% ethanol, negative = enhanced growth, listed as 7
Experimental: as §1, §2, §3, §4, §5, §6, §7, §8

K. pneumoniae M6 = assay: inhibition of bacterial growth, OD600 after 20 h; format: cell-based, Klebsiella pneumoniae; conditions: SSA 5.0 mM, 2.5% ethanol, negative = enhanced growth, listed as 7
Experimental: as §1, §2, §3, §4, §5, §6, §7, §8

S. aureus ATCC 9144 = assay: inhibition of bacterial growth, OD600 after 20 h; format: cell-based, Staphylococcus aureus; conditions: SSA 5.0 mM, 2.5% ethanol, negative = enhanced growth, listed as 7
Experimental: as §1, §2, §3, §4, §5, §6, §7, §8

[2] = quantitative (Q) 1H NMR spectroscopy, proportion of SSA becoming NMR silent (higher-order aggregates); format: physicochemical; conditions: ~112 mM, DMSO-d6 1.0% DCM
Experimental: To confirm the presence of higher order self-associative structures quantitative (Q) ^1H NMR spectroscopy studies were undertaken at 5.6 mM in D2O 5% EtOH. Here the ^1H NMR resonances attributed to the EtOH are used as an internal standard.
Table S1 – Overview of results of the quantitative (Q) 1H NMR studies for 1, 3, 5, 7 and 9
5.0 % EtOH . Values given in % represent the observed proportion of the SSA that has become
Table S2 – Overview of results of the quantitative (Q) 1H NMR studies for 2, 4, 6, 8 and 10
5.0 % EtOH. Values given in % represent the observed proportion of anion and cation that has

[3] = tensiometry: critical aggregate concentration (CAC) and surface tension; format: physicochemical
Experimental: As the (Q) ^1H NMR spectroscopy experiments conducted at 5.6 mM in a D2O 5.0% EtOH solution confirmed the presence of higher-order self-associated structures with solid-like properties, concentration dependent surface tension measurements, obtained through tensiometry, were used to calculate critical aggregate concentration (CAC). Here the CAC is defined as the point at which an increase in SSA concentration no longer decreases surface tension but instead results in the formation of higher-order self-associated structures.

E. faecalis NCTC 775 = assay: inhibition of bacterial growth, OD600 after 20 h; format: cell-based, Enterococcus faecalis; conditions: SSA 5.0 mM, 2.5% ethanol, negative = enhanced growth
Experimental: as §1, §2, §3, §4, §5, §6, §7, §8

P. aeruginosa PAO1 = assay: inhibition of bacterial growth, OD600 after 20 h; format: cell-based, Pseudomonas aeruginosa; conditions: SSA 5.0 mM, 2.5% ethanol, negative = enhanced growth, listed as 7
Experimental: as §1, §2, §3, §4, §5, §6, §7, §8

Caco-2 cell line = assay: bi-directional permeability in Caco-2 cell line; format: in vitro ADME, human
Experimental: Metabolic stability was assessed in mouse and rat liver microsomes. Microsomes are subcellular fractions of hepatocytes and contain CYP450s, the predominant enzymes involved in first-pass metabolism.[66] […] A plasma protein binding assay was performed to assess the extent of compound binding to plasma proteins. This is key as only unbound compound is free to distribute and exert a pharmacological effect. […] To assess the potential for this sub-class of SSAs to be developed as drugs for oral administration, Caco-2 permeability assays were also performed, as a cellular model indicative of human intestinal permeability. […]
Sample analysis was by electrospray ionisation. […]
Bi-directional Permeability in Caco-2 Cell Line:
The bi-directional permeability in Caco-2 cell lines was determined by seeding cells onto an HTS Transwell plate. Cells were cultivated for 14-18 days in a cell culture incubator at 37 °C, 5 % CO2, 95 % relative humidity. Cell culture medium was replaced every other day. To assess monolayer integrity the transepithelial electrical resistance (TEER) across the monolayer was measured using Millicell Epithelial volt-ohm meter prior to assay and Lucifer yellow (LY) fluorescence measurement post-assay.
Test and control compounds were prepared in DMSO and diluted in Hank’s Balanced Saline […]
Solution (HBSS, pH 7.4) to a final concentration of 5 or 10 µM. Compound was added to the […]
donor compartment of the transwell plate for both apical to basolateral (A>B) and basolateral […]
to apical (B>A) measurements, with blank HBSS being added to the receiver compartment.
The transwell plate was then incubated at 37 °C, 5 % CO2 for 2 hours.

[4] = Caco-2, 5 or 10 µM, HBSS pH 7.4, 2 hours

Row | DLS Peak 2 maxima [1] | Polydispersity index (%) [1] | dH (DLS intensity distribution peak 1 maxima) [1] | (Q) 1H NMR, proportion NMR silent, SSA acid or anion [2] | CAC (footnote in place of a value) ([3]; H2O 5.0% EtOH, 298 K) | ST at CAC ([3]; H2O 5.0% EtOH, 298 K, listed as 7) | Surface tension at CAC ([3]; H2O/5.0 % EtOH, listed as 7) | SMILES | Percentage inhibition of bacterial growth, NCTC 12204 (E. faecium) (E. faecium NCTC 12204) | Percentage inhibition of bacterial growth, NCTC 12923 (E. coli) (E. coli NCTC 12923) | Percentage inhibition of bacterial growth, ATCC 17978 (A. baumannii) (A. baumannii ATCC 17978) | Percentage inhibition of bacterial growth, M6 (K. pneumoniae) (K. pneumoniae M6) | Percentage inhibition of bacterial growth, ATCC 9144 (S. aureus) (S. aureus ATCC 9144) | inhibition at 5000 µM (E. faecalis NCTC 775; Enterococcus faecalis, NCTC775, 20 h, read-out: Percentage inhibition of bacterial growth, NCTC 775 (E. faecalis)) | Percentage inhibition of bacterial growth, NCTC 775 (E. faecalis) (E. faecalis NCTC 775; listed as 7) | Percentage inhibition of bacterial growth, PAO1 (P. aeruginosa) (P. aeruginosa PAO1) | Efflux Ratio (Caco-2 cell line; Caco-2) | Recovery (%) AP-BL (Caco-2 cell line; Caco-2) | Recovery (%) BL-AP (Caco-2 cell line; Caco-2) | Papp (A-B) (Caco-2 cell line; [4]) | Papp (B-A) (Caco-2 cell line; [4])
1 | 5177 nm | 19.6 (± 1.7) % | 214 nm | 0% | ^b (CAC above the limit of solubility) | 55 mN m^−1 | 54.72 mN/m | COc1ccc(NC(=O)N[C@@H](CC(=O)O)C(=O)O)cc1 [SSA 7] | 50.11% and 50% | 64.22% and 64% | 24.84% and 25% | 32.42% and 32% | 5.65% and 6% | 47.2% | 47% | -24.25% and −24% |  |  |  |  | 
2 |  |  |  |  |  |  |  | C[C@H]1O[C@@H](O[C@H]2[C@@H](O)C[C@H](O[C@H]3[C@@H](O)C[C@H](O[C@H]4CC[C@@]5(C)[C@H](CC[C@@H]6[C@@H]5C[C@@H](O)[C@]5(C)[C@@H](C7=CC(=O)OC7)CC[C@]65O)C4)O[C@@H]3C)O[C@@H]2C)C[C@H](O)[C@@H]1O [Digoxin, reference compound] |  |  |  |  |  |  |  |  | 45.59 | 95.92% | 99.20% | 0.42 10-6, cm/s | 18.74 10-6, cm/s

— PMC12645191, “Dicarboxylate and dicarboxylic acid appended supramolecular self-associating amphiphiles as antimicrobial agents against high priority bacterial pathogens” (Organic & Biomolecular Chemistry, 2025)
